Laboratory results: ChEMBL document CHEMBL4823252 (J Med Chem, 2021)
pIC50: −log10 of the molar value. Blank lines part the entries; values can stand above or below the compound they belong to.

Key:
MV4-11 [1] = assay: Antiproliferative activity against human MV4-11 cells incubated for 72 hrs by Cell Counting Kit-8 assay; format: functional, cell-based; details: MV4-11, 72 h
MOLM-13 [2] = assay: Antiproliferative activity against human sunitinib-resistant MOLM-13 cells at 111 nM incubated for 72 hrs by CCK8 assay relative to control; format: functional
MOLM-13 [3] = assay: Antiproliferative activity against human sunitinib-resistant MOLM-13 cells at 37 nM incubated for 72 hrs by CCK8 assay relative to control; format: functional
MOLM-13 [4] = assay: Antiproliferative activity against human sunitinib-resistant MOLM-13 cells at 4 nM incubated for 72 hrs by CCK8 assay relative to control; format: functional
MOLM-13 [5] = assay: Antiproliferative activity against human sunitinib-resistant MOLM-13 cells at 1 nM incubated for 72 hrs by CCK8 assay relative to control; format: functional
MOLM-13 [6] = assay: Antiproliferative activity against human quizartinib-resistant MOLM-13 cells at 1000 nM incubated for 72 hrs by CCK8 assay relative to control; format: functional
MOLM-13 [7] = assay: Antiproliferative activity against human quizartinib-resistant MOLM-13 cells at 37 nM incubated for 72 hrs by CCK8 assay relative to control; format: functional
MV4-11 [8] = assay: Induction of cell cycle arrest in human MV4-11 cells assessed as accumulation at G1 phase at 1 nM incubated for 24 hrs by flow cytometry (reference value: 64.73%); format: functional
MV4-11 [9] = assay: Induction of cell cycle arrest in human MV4-11 cells assessed as accumulation at S phase at 1 nM incubated for 24 hrs by flow cytometry (reference value: 16.31%); format: functional
MV4-11 [10] = assay: Induction of cell cycle arrest in human MV4-11 cells assessed as accumulation at G2/M phase at 1 nM incubated for 24 hrs by flow cytometry (reference value: 7.29%); format: functional
MV4-11 [11] = assay: Induction of cell cycle arrest in human MV4-11 cells assessed as accumulation at G1 phase at 10 nM incubated for 24 hrs by flow cytometry (reference value: 64.73%); format: functional
MV4-11 [12] = assay: Induction of cell cycle arrest in human MV4-11 cells assessed as accumulation at S phase at 10 nM incubated for 24 hrs by flow cytometry (reference value: 16.31%); format: functional
MV4-11 [13] = assay: Induction of cell cycle arrest in human MV4-11 cells assessed as accumulation at G2/M phase at 10 nM incubated for 24 hrs by flow cytometry (reference value: 7.29%); format: functional
MV4-11 [14] = assay: Induction of cell cycle arrest in human MV4-11 cells assessed as accumulation at G1 phase at 100 nM incubated for 24 hrs by flow cytometry (reference value: 64.73%); format: functional
MV4-11 [15] = assay: Induction of cell cycle arrest in human MV4-11 cells assessed as accumulation at G2/M phase at 100 nM incubated for 24 hrs by flow cytometry (reference value: 7.29%); format: functional
MOLM-13 [16] = assay: Induction of cell cycle arrest in human MOLM-13 cells assessed as accumulation at G1 phase at 1 nM incubated for 24 hrs by flow cytometry (reference value: 69.08%); format: functional
MOLM-13 [17] = assay: Induction of cell cycle arrest in human MOLM-13 cells assessed as accumulation at S phase at 1 nM incubated for 24 hrs by flow cytometry (reference value: 16.28%); format: functional
MOLM-13 [18] = assay: Induction of cell cycle arrest in human MOLM-13 cells assessed as accumulation at sub-G1 phase at 10 nM incubated for 24 hrs by flow cytometry (reference value: 4.24%); format: functional
MOLM-13 [19] = assay: Induction of cell cycle arrest in human MOLM-13 cells assessed as accumulation at G1 phase at 10 nM incubated for 24 hrs by flow cytometry (reference value: 69.08%); format: functional
MOLM-13 [20] = assay: Induction of cell cycle arrest in human MOLM-13 cells assessed as accumulation at S phase at 10 nM incubated for 24 hrs by flow cytometry (reference value: 16.28%); format: functional
MOLM-13 [21] = assay: Induction of cell cycle arrest in human MOLM-13 cells assessed as accumulation at sub-G1 phase at 100 nM incubated for 24 hrs by flow cytometry (reference value: 4.24%); format: functional
MOLM-13 [22] = assay: Induction of cell cycle arrest in human MOLM-13 cells assessed as accumulation at G1 phase at 100 nM incubated for 24 hrs by flow cytometry (reference value: 69.08%); format: functional
MV4-11 [23] = assay: Induction of apoptosis in human MV4-11 cells assessed as viable cells at 1 nM incubated for 24 hrs by flow cytometry (reference value: 98.26%); format: functional; details: read-out: Activity
MV4-11 [24] = assay: Induction of apoptosis in human MV4-11 cells assessed as early apoptotic cells at 1 nM incubated for 24 hrs by flow cytometry (reference value: 0.31%); format: functional
MV4-11 [25] = assay: Induction of apoptosis in human MV4-11 cells assessed as late apoptotic cells at 1 nM incubated for 24 hrs by flow cytometry (reference value: 0.58%); format: functional
MV4-11 [26] = assay: Induction of apoptosis in human MV4-11 cells assessed as necrotic cells at 1 nM incubated for 24 hrs by flow cytometry (reference value: 0.25%); format: functional
MV4-11 [27] = assay: Induction of apoptosis in human MV4-11 cells assessed as viable cells at 10 nM incubated for 24 hrs by flow cytometry (reference value: 98.86%); format: functional; details: read-out: Activity
MV4-11 [28] = assay: Induction of apoptosis in human MV4-11 cells assessed as early apoptotic cells at 10 nM incubated for 24 hrs by flow cytometry (reference value: 0.31%); format: functional
MV4-11 [29] = assay: Induction of apoptosis in human MV4-11 cells assessed as late apoptotic cells at 10 nM incubated for 24 hrs by flow cytometry (reference value: 0.58%); format: functional
MV4-11 [30] = assay: Induction of apoptosis in human MV4-11 cells assessed as necrotic cells at 10 nM incubated for 24 hrs by flow cytometry (reference value: 0.25%); format: functional
MV4-11 [31] = assay: Induction of apoptosis in human MV4-11 cells assessed as necrotic cells at 100 nM incubated for 24 hrs by flow cytometry (reference value: 0.25%); format: functional
MOLM-13 [32] = assay: Induction of apoptosis in human MOLM-13 cells assessed as viable cells at 1 nM incubated for 24 hrs by flow cytometry (reference value: 92.83%); format: functional; details: read-out: Activity
MOLM-13 [33] = assay: Induction of apoptosis in human MOLM-13 cells assessed as late apoptotic cells at 1 nM incubated for 24 hrs by flow cytometry (reference value: 4.54%); format: functional
MOLM-13 [34] = assay: Induction of apoptosis in human MOLM-13 cells assessed as late apoptotic cells at 10 nM incubated for 24 hrs by flow cytometry (reference value: 4.54%); format: functional
MOLM-13 [35] = assay: Induction of apoptosis in human MOLM-13 cells assessed as necrotic cells at 10 nM incubated for 24 hrs by flow cytometry (reference value: 0.45%); format: functional
MOLM-13 [36] = assay: Induction of apoptosis in human MOLM-13 cells assessed as early apoptotic cells at 100 nM incubated for 24 hrs by flow cytometry (reference value: 2.18%); format: functional
MOLM-13 [37] = assay: Induction of apoptosis in human MOLM-13 cells assessed as late apoptotic cells at 100 nM incubated for 24 hrs by flow cytometry (reference value: 4.54%); format: functional
MOLM-13 [38] = assay: Induction of apoptosis in human MOLM-13 cells assessed as necrotic cells at 100 nM incubated for 24 hrs by flow cytometry (reference value: 0.45%); format: functional
MOLM-13 [39] = assay: Antiproliferative activity against human sunitinib-resistant MOLM-13 cells at 333 nM incubated for 72 hrs by CCK8 assay relative to control; format: functional

pIC50 (MV4-11 [1]): 7.63
SMILES: Cc1c(NC(=O)CCN2CCCC2)c[nH]c1/C=C1\C(=O)Nc2ccc(F)cc21
Activity (MOLM-13 [2]): 4.9%
Activity (MOLM-13 [3]): 4.7%
Activity (MOLM-13 [4]): 3.3%
Activity (MOLM-13 [5]): -4.2%
Activity (MOLM-13 [6]): 60.3%
Activity (MOLM-13 [7]): 3.8%
Activity (MV4-11 [8]): 69.79%
Activity (MV4-11 [9]): 11.6%
Activity (MV4-11 [10]): 3.98%
Activity (MV4-11 [11]): 66.28%
Activity (MV4-11 [12]): 2.41%
Activity (MV4-11 [13]): 2%
Activity (MV4-11 [14]): 62.23%
Activity (MV4-11 [15]): 2.51%
Activity (MOLM-13 [16]): 68.95%
Activity (MOLM-13 [17]): 15.09%
Activity (MOLM-13 [18]): 30.16%
Activity (MOLM-13 [19]): 59.1%
Activity (MOLM-13 [20]): 4.63%
Activity (MOLM-13 [21]): 42.35%
Activity (MOLM-13 [22]): 47.75%
viability at 0.001 µM (MV4-11 [23]): 97.2%
Activity (MV4-11 [24]): 0.39%
Activity (MV4-11 [25]): 0.99%
Activity (MV4-11 [26]): 1.38%
viability at 0.01 µM (MV4-11 [27]): 88%
Activity (MV4-11 [28]): 3.5%
Activity (MV4-11 [29]): 6.55%
Activity (MV4-11 [30]): 1.93%
Activity (MV4-11 [31]): 1.57%
viability at 0.001 µM (MOLM-13 [32]): 91.8%
Activity (MOLM-13 [33]): 4.3%
Activity (MOLM-13 [34]): 14.5%
Activity (MOLM-13 [35]): 0.52%
Activity (MOLM-13 [36]): 34.68%
Activity (MOLM-13 [37]): 20.79%
Activity (MOLM-13 [38]): 0.75%
Activity (MOLM-13 [39]): 18.6%

pIC50 (MV4-11 [1]): 7.50
SMILES: CCN(CC)CCNC(=O)c1c(C)[nH]c(/C=C2\C(=O)Nc3ccc(F)cc32)c1C [SUNITINIB]
Activity (MOLM-13 [2]): 1.3%
Activity (MOLM-13 [3]): 2.6%
Activity (MOLM-13 [4]): 0.9%
Activity (MOLM-13 [5]): 5.3%
Activity (MOLM-13 [6]): 26.6%
Activity (MOLM-13 [7]): -0.5%
Activity (MV4-11 [8]): 66.78%
Activity (MV4-11 [9]): 13.27%
Activity (MV4-11 [10]): 5.86%
Activity (MV4-11 [11]): 68.1%
Activity (MV4-11 [12]): 2.69%
Activity (MV4-11 [13]): 2.53%
Activity (MV4-11 [14]): 60.29%
Activity (MV4-11 [15]): 2.68%
Activity (MOLM-13 [16]): 65.44%
Activity (MOLM-13 [17]): 16.42%
Activity (MOLM-13 [18]): 24.17%
Activity (MOLM-13 [19]): 63.75%
Activity (MOLM-13 [20]): 5.58%
Activity (MOLM-13 [21]): 49.02%
Activity (MOLM-13 [22]): 41.02%
viability at 0.001 µM (MV4-11 [23]): 98.4%
Activity (MV4-11 [24]): 0.29%
Activity (MV4-11 [25]): 1.03%
Activity (MV4-11 [26]): 0.32%
viability at 0.01 µM (MV4-11 [27]): 89.4%
Activity (MV4-11 [28]): 2.79%
Activity (MV4-11 [29]): 6.58%
Activity (MV4-11 [30]): 1.22%
Activity (MV4-11 [31]): 1.71%
viability at 0.001 µM (MOLM-13 [32]): 92.5%
Activity (MOLM-13 [33]): 3.32%
Activity (MOLM-13 [34]): 9.47%
Activity (MOLM-13 [35]): 0.4%
Activity (MOLM-13 [36]): 31.1%
Activity (MOLM-13 [37]): 23.49%
Activity (MOLM-13 [38]): 1.14%
Activity (MOLM-13 [39]): 6.3%
